How the values were obtained:
DNA-EB system = assay: DNA-ethidium bromide fluorescence competition; assay type: binding
Experimental: The fluorescence emission experiments were carried out in a Perkin Elmer LS 55 spectrofluorimeter. A pulsed Xenon lamp (50 Hz) provided the excitation light. A thermostated water bath recycler linked to the cell holder provided temperature control within ± 0.1 °C. The measurements were done in a 1000 µL quartz cell with an optical path length of 1.0 cm with the complexes solution added directly to the DNA-EB (ethidium bromide) solution in the cell. A glass syringe connected to a Mitutoyo micrometric screw added accurate volumes each time (one complete turn of the screw is 8.2 µL, 1/50 of a turn is the minimum possible addition).
Moreover, this complex reduces the emission of the EB-DNA system to ca. 40 % of its initial intensity with an interaction constant of (1.18 ± 0.03) × 10^4 M^−1 (Fig. S22, constant calculated with HypSpec2014 (28)).
Considering the results of the melting temperature assay, the DNA-EB fluorescence quenching was also used to test complex 7. […] The accessible fraction fa was determined as 0.26 and the interaction constant as (1.44 ± 0.02) ×10^5 M^−1 (HypSpec2014 (28)). As EB has a second mode of interaction with DNA due to electrostatic interactions on the external part of the biomolecule backbone (30), it is possible that the complexes are only being able to reach for this fraction. […]

S. aureus MRSA 272123 = assay: MIC determination; assay type: cell-based, Staphylococcus aureus; conditions: 18 h

For `CC(=O)[O-].O=C(NN=Cc1ccc2cccc([O-])c2n1)c1ccccc1.[Cu+2]` [Complex 1, [Cu(HL^1)(AcO)]], the interaction constant (DNA-EB system; DNA-EB fluorescence quenching, HypSpec2014) was “(1.18 ± 0.03) × 10^4 M^−1”, the “emission of the EB-DNA system, % of its initial intensity” value (DNA-EB system; titration 0 – 51.6 µM, HEPES pH 7.4) was “ca. 40%” and the MIC (S. aureus MRSA 272123) was 50 µM.
